Literature values, collected in patent publication US9540416B2, “Purification process” (GLAXOSMITHKLINE BIOLOGICALS S.A., priority 2012, dated 2017).
“Also recorded” adds a separate entry of the source.

Legend:
[1] = relative to other Quillaja saponins
mice and other mammals = settings: in mice and other mammals

QS-21
toxicity [1]: low toxicity | adjuvant activity (mice and other mammals): significant adjuvant activity; also recorded: strong adjuvant activity

QS-18
toxicity [1]: more toxic at lower doses than other Quillaja saponins | adjuvant activity (mice and other mammals): significant adjuvant activity

QS-17
adjuvant activity (mice and other mammals): significant adjuvant activity
